From paper PMC12746157, “Light-Regulated Agonists Spatiotemporally Activating the Vitamin D Receptor Mitigate Psoriasis-like Inflammation in Mice without Inducing Hypercalcemia” (ACS Central Science, 2025)

Experiments:
VDR = VDR (Homo sapiens, UniProt P11473); assay: Luminescent proximity homogeneous assay (AlphaScreen): interaction of purified VDR, RxR and TRAP220 coactivator fragment; format: biochemical; details: for EC50: n >= 3, read-out: Activity (pEC50) (converted); for Activity in the dark: dark (trans), concentrations up to 10 μM
Experimental: The activity of all molecules was evaluated using a luminescent proximity homogeneous assay to study interactions between purified VDR, RxR and a fragment of the transcriptional coactivator TRAP220 (Supporting Information). This method allowed us to monitor the interaction between TRAP220 and the activated VDR-RxR heterodimer, which is of mechanistic and physiological significance. Both the activation of VDR and the VDR-RxR heterodimer formation are necessary to promote the whole complex association. This system efficiently includes conformational events of the receptor upon activation that go beyond a simple binding measurement. […]
The activity of all molecules was evaluated using an in-vitro luminescent proximity homogeneous assay by using the Alphascreen technology (Cat No. 6760619R, Perkin Elmer, now Revvity). In a transparent 96-well preplate, 10X concentrations of the compounds were prepared in assay buffer (0.1% bovine serum albumin, 2 mM 1,4-dithiothreitol, 25 mM HEPES and 100 mM NaCl; pH 7.3). LSN2148936 was used as positive control. Purified histidine-tagged VDR (44 µM), flag-RxRa (5.7 µM), biotin tagged TRAP220 transcriptional coactivator (500 µM), and the donor and acceptor beads from the AlphaScreen kit (2 µL/mL each), were diluted in assay buffer. In the dark, 6 µL/well of each test compound were pipetted on a white, shallow 96-well ProxiPlateTM […]
(Perkin Elmer, now Revvity, Cat.No. 6006290) in duplicate. Immediately, 54 µL of the protein solution were added and the plate was covered and incubated for 30 min at room temperature in the dark. Meanwhile, the plate with the 10X dilutions was illuminated at 365 nm for 3 min in a 96-well DED array plate (LEDA Teleopto), to allow the photoconversion of the molecules to their cis configuration. The illuminated compounds were mixed with the protein solution and incubated as described above for the plate in the dark. After the incubation time, the counts of both, the dark and illuminated plates, were measured in a Tecan Spark 20M Multimode plate reader with defined settings (excitation: 680 nm, emission: 520-620 nm, excitation time: 100ms, integration time: 300 ms). Biotinylated-His6 peptide (PerkinElmer) was used as a quality control reagent for AlphaScreen® assays and to evaluate compound interaction with the method. The raw data were normalized to the effect of the buffer (0%) and the maximum response obtained with LSN2148936 (100%). Dose-response curves and EC50 values were calculated with Graphpad software. Each experiment was performed in triplicate, with 2 replicates per plate.
4. Hydrogen/deuterium exchange coupled to mass spectrometry (HDX-MS)
The HDX-MS experiments were performed with an in-house automated modular system interfaced with an Orbitrap Exploris 480 mass spectrometer.1 Two inter-day experiments were conducted: one in the dark (first day) and one illuminated with 365 nm light (second day). Sample preparation and on-exchange reactions were performed on opaque plates (VWR® Real-Time […]
mm, Part Nº BC5226) light source was positioned above the Tecan system used for sample preparation. The distance between the UV light and the opaque plates was 80 cm. The 365 nm light illuminated the sample preparation process and the on-exchange reaction on the second day.
A 10 µM VDR-LBD protein stock solution was prepared in 20 mM HEPES buffer (with 150 mM NaCl, 10 mM D-L Methionine and 5 mM DTT) at pH 7.5. The compound 11b was prepared at 10 mM in DMSO. The protein: compound-complex (1:10 molar ratio) was pre-incubated for 1h before the first on-exchange reaction. The HDX reaction was initiated by a 5-fold dilution of the protein stock solution, in the presence and absence of compound 11b, in the corresponding Deuterated buffer at room temperature. Samples were prepared in parallel with three replicates of […]
time point, HDX reactions were quenched with a solution of 3 M Urea and 1% TFA (pH 2.5) followed by online proteolysis with an in-house Pepsin immobilized column and desalting […]

[1] = Proportions of cis and trans at the photostationary state in DMSO from absorbance spectra (Ernst Fischer method); format: physicochemical
Experimental: 2. Photochemical characterization.
A 50 µM solution of each compound in DMSO was dispensed into a transparent 96-well plate (200 µL per well). The absorption spectra were recorded from 300 to 600 nm with 2 nm fixed intervals using a Tecan Spark 20M Multimode microplate reader. Initial measurements were performed in the dark, followed by spectra acquired immediately after each 3 min period of light irradiation at different wavelengths using 96-well LED array plates (LEDA Teleopto). Theoretical absorbance spectra corresponding to the pure cis isomer (100%) of each compound were calculated in order to obtain the theoretical percentage of cis isomer at each wavelength, according to the method described by Ernst Fischer (1967). […]
Table S6. Proportions of cis and trans at the photostationary state in DMSO. […]

[2] = after illumination (365 nm) for 3 min, mean ± SEM
[3] = after illumination (365 nm) for 3 min, normalized to maximum response of LSN2148936 (100%), mean ± SEM

Sequence of VDR (P11473 whole entry, the tested form may be a part): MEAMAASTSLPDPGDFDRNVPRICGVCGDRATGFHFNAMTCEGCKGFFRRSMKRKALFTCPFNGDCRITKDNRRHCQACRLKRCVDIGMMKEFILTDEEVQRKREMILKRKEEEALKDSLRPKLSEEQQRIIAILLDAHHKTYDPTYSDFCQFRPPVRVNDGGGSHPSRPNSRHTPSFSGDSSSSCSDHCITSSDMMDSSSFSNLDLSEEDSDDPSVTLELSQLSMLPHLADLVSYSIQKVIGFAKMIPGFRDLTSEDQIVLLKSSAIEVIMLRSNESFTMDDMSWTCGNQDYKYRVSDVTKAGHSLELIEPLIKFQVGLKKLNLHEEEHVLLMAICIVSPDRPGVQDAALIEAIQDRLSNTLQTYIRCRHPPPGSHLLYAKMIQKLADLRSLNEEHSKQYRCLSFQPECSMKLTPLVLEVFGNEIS
Sequence of VDR (P19793 whole entry partner, the tested form may be a part): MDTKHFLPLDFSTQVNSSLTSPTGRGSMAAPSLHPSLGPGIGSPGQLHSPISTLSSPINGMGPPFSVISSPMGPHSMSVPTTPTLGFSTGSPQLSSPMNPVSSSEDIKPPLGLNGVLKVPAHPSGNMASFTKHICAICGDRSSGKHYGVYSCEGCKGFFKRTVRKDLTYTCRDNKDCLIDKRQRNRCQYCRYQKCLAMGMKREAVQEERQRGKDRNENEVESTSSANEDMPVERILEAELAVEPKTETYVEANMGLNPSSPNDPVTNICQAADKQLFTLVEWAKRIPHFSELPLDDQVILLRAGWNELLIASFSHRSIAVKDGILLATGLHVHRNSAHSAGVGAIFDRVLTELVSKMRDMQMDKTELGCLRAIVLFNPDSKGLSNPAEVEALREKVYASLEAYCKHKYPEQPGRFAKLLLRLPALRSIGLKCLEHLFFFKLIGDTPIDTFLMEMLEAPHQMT
Sequence of VDR (Q15648 whole entry partner, the tested form may be a part): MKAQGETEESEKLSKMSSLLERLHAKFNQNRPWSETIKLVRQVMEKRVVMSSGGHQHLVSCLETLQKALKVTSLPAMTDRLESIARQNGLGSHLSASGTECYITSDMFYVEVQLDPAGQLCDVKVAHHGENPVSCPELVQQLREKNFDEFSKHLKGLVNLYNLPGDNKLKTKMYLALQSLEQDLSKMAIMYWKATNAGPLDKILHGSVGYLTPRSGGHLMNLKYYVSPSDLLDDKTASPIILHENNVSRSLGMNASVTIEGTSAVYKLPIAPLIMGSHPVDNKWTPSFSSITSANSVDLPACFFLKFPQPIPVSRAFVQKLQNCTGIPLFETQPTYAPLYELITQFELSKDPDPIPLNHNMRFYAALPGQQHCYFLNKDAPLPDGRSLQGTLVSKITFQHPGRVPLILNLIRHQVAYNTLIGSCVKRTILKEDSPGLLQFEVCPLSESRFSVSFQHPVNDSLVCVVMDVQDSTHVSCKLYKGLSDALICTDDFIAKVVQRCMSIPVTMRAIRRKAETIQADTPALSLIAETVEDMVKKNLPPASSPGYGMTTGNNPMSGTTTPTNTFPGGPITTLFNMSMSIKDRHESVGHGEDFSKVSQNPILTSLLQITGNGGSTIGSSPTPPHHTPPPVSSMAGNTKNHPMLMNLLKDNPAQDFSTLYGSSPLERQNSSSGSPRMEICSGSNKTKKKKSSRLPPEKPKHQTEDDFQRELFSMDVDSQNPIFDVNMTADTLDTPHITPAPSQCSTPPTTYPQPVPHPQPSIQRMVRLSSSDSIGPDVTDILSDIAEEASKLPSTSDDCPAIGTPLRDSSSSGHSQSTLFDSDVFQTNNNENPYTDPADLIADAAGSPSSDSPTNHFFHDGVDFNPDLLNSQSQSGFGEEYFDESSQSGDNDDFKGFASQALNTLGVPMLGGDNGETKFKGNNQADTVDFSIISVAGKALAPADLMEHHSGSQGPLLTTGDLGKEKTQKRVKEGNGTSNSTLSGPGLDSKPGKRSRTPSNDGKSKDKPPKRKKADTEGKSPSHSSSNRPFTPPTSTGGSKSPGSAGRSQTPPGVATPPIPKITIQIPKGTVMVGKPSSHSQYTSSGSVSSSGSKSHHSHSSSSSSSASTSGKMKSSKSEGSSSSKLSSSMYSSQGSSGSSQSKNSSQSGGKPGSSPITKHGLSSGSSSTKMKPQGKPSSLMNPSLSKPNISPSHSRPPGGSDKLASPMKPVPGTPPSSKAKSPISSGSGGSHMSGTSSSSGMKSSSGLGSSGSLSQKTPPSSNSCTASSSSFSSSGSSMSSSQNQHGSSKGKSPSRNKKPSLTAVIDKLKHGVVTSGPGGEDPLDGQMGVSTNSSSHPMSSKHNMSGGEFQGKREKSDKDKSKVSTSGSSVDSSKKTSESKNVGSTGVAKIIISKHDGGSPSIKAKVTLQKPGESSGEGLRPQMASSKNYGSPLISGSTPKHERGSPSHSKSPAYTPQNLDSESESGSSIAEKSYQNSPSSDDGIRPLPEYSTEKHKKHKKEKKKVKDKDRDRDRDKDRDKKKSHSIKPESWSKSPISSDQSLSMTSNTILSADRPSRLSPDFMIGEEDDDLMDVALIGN

Row | Structure (SMILES) | EC50 (VDR; [2]) [nM] | Emax (VDR; [3]) [%] | %cis at the photostationary state ([1]; 365 nm) | %trans at the photostationary state ([1]; 365 nm) | %cis at the photostationary state ([1]; 380 nm) | %trans at the photostationary state ([1]; 380 nm) | %cis at the photostationary state ([1]; 405 nm) | %trans at the photostationary state ([1]; 405 nm) | %cis at the photostationary state ([1]; 420 nm) | %trans at the photostationary state ([1]; 420 nm) | %cis at the photostationary state ([1]; 470 nm) | %trans at the photostationary state ([1]; 470 nm) | %cis at the photostationary state ([1]; 500 nm) | %trans at the photostationary state ([1]; 500 nm) | %cis at the photostationary state ([1]; 530 nm) | %trans at the photostationary state ([1]; 530 nm) | Activity in the dark (VDR) | Activity (Emax) (VDR; after illumination (365 nm) for 3 min, normalized to maximum response of LSN2148936 (100%), mean ± SEM, listed as 11b (PhotoVDRM)) [%] | antagonist activity (VDR; several concentrations with LSN2148936 at 300nM, dark or 365 nm) | %cis at the photostationary state ([1]; 420 nm, listed as PhotoVDRM)
1 | COC(=O)c1ccc(-c2cccc(/N=N/c3ccc(OCC(O)C(C)(C)C)c(C)c3)c2)cc1 (stereo not shown) [Compound 10a] | 1100 | 23 ± 2.65 | 93,70% | 6,30% | 91,83% | 8,17% | 60,42% | 39,58% | 58,05% | 41,95% | 29,15% | 70,85% | 25,54% | 74,46% | 20,56% | 79,44% |  |  |  | 
2 | COC(=O)c1ccc(-c2cccc(/N=N/c3ccc(OCC(O)C(C)(C)C)cc3C)c2)cc1 (stereo not shown) [Compound 10b] | 100 | 44 ± 0.66 | 97,26% | 2,74% | 96,48% | 3,52% | 66,00% | 34,00% | 62,72% | 37,28% | 34,89% | 65,11% | 35,65% | 64,35% | 31,97% | 68,03% |  |  |  | 
3 | COC(=O)c1ccc(-c2cccc(/N=N/c3ccc(OCC(O)C(C)(C)C)c(C)c3)c2)c(C)c1 (stereo not shown) [Compound 10c] | 1860 | 29 ± 4.31 | 97,00% | 3,00% | 95,62% | 4,38% | 61,14% | 38,86% | 59,71% | 40,29% | 30,53% | 69,47% | 26,82% | 73,18% | 21,34% | 78,66% |  |  |  | 
4 | COC(=O)c1ccc(-c2cccc(/N=N/c3ccc(OCC(O)C(C)(C)C)cc3C)c2)c(C)c1 (stereo not shown) [Compound 10d] | 813 | 30 ± 1.71 | 96,30% | 3,70% | 95,32% | 4,68% | 62,22% | 37,78% | 59,99% | 40,01% | 29,82% | 70,18% | 25,21% | 74,79% | 20,03% | 79,97% |  |  |  | 
5 | Cc1cc(/N=N/c2cccc(-c3ccc(C(=O)O)cc3)c2)ccc1OCC(O)C(C)(C)C (stereo not shown) [Compound 11a] | 1260 | 60 ± 1.26 | 94,52% | 5,48% | 92,81% | 7,19% | 60,54% | 39,46% | 58,09% | 41,91% | 29,80% | 70,20% | 26,59% | 73,41% | 21,22% | 78,78% | small increase in the activity |  |  | 
6 | Cc1cc(OCC(O)C(C)(C)C)ccc1N=Nc1cccc(-c2ccc(C(=O)O)cc2)c1 (stereo not shown) [Compound 11b] | 58.9 | > 80 | 96,87% | 3,13% | 95,62% | 4,38% | 63,64% | 36,36% | 60,47% | 39,53% | 31,30% | 68,70% | 32,81% | 67,19% | 29,14% | 70,86% | inactive | 84 ± 2.62 | does no act as antagonist | up to 60%
7 | Cc1cc(/N=N/c2cccc(-c3ccc(C(=O)O)cc3C)c2)ccc1OCC(O)C(C)(C)C (stereo not shown) [Compound 11c] | 575 | 68 ± 3.73 | 97,22% | 2,78% | 94,72% | 5,28% | 61,36% | 38,64% | 59,26% | 40,74% | 31,49% | 68,51% | 28,18% | 71,82% | 22,70% | 77,30% |  |  |  | 
8 | Cc1cc(OCC(O)C(C)(C)C)ccc1/N=N/c1cccc(-c2ccc(C(=O)O)cc2C)c1 (stereo not shown) [Compound 11d] | 209 | 93 ± 6.73 | 96,79% | 3,21% | 95,58% | 4,42% | 61,42% | 38,58% | 54,69% | 45,31% | 28,11% | 71,89% | 29,74% | 70,26% | 25,59% | 74,41% |  |  |  | 
